From patent US10315992B2, “Tetracyline compounds” (Tetraphase Pharmaceuticals, Inc., priority 2012, dated 2019)
Values after ≈ are worked out from the molar mass of the structure shown. Read-outs that look alike come from different tables or passages of the source.

Experiments:
[1] = test system: Staphylococcus aureus SA100 (ATCC 13709, MSSA, Smith strain); assay: MIC assay, SA100; assay type: cell-based
[2] = test system: Staphylococcus aureus SA191 (HA-MRSA, tetracycline-resistant); assay: MIC assay, SA191; assay type: cell-based
[3] = test system: Enterococcus faecalis EF103 (ATCC 29212); assay: MIC assay, EF103; assay type: cell-based
[4] = test system: Enterococcus faecalis EF159 (tet(M)); assay: MIC assay, EF159; assay type: cell-based
[5] = test system: Enterococcus faecium EF404 (blood isolate, tet(M)); assay: MIC assay, EF404; assay type: cell-based
[6] = test system: Moraxella catarrhalis MC205 (ATCC 8176); assay: MIC assay, MC205; assay type: cell-based
[7] = test system: Pseudomonas aeruginosa PA555 (ATCC BAA-47, PAO1); assay: MIC assay, PA555; assay type: cell-based
[8] = test system: Pseudomonas aeruginosa PA673 (2009 urine isolate); assay: MIC assay, PA673; assay type: cell-based
[9] = test system: Acinetobacter baumannii AB250 (cystic fibrosis isolate, MDR); assay: MIC assay, AB250; assay type: cell-based
[10] = test system: Burkholderia cenocepacia BC240 (cystic fibrosis isolate, MDR); assay: MIC assay, BC240; assay type: cell-based; settings: Burkholderia cenocepacia, control compounds
EC 880 ipxC = assay: MIC assay, EC880; assay type: cell-based
Text: (§1) Minimum Inhibitory Concentration (MIC) Assay
(§2) The assays were run as follows.

EC 882 imp = assay: MIC assay, EC882; assay type: cell-based
Text: as §1, §2

[11] = test system: Klebsiella pneumoniae KP109 (ATCC 13883)
[12] = test system: Klebsiella pneumoniae KP153 (tet(A), MDR, ESBL+)
PA 884 35151 = assay: MIC assay, PA884; settings: Pseudomonas aeruginosa, read-out: MIC PA 884 351 51
Protocol: MICs were determined according to the Clinical and Laboratory Standards Institute (CLSI) guidances (e.g., CLSI. Performance standards for antimicrobial susceptibility testing; nineteenth information supplement. CLSI document M100-S19, CLSI, 940 West Valley Road, Suite 1400, Wayne, Pa. 19087-1898, USA, 2009). Briefly, frozen bacterial strains were thawed and subcultured onto Mueller Hinton Broth (MHB) or other appropriate media (Streptococcus requires blood and Haemophilus requires hemin and NAD). Following incubation overnight, the strains were subcultured onto Mueller Hinton Agar and again incubated overnight. […] Isolated colonies were selected to prepare a starting inoculum equivalent to a 0.5 McFarland standard. […] Test compounds were prepared by dilution in sterile water to a final concentration of 5.128 mg/mL. Antibiotics (stored frozen, thawed and used within 3 hours of thawing) and compounds were further diluted to the desired working concentrations.
The assays were run as follows. Fifty μL of MHB was added to wells 2-12 of a 96-well plate. One hundred μL of appropriately diluted antibiotics was added to well 1. Fifty μL of antibiotics was removed from well 1 and added to well 2 and the contents of well 2 mixed by pipetting up and down five times. Fifty μL of the mixture in well 2 was removed and added to well 3 and mixed as above. Serial dilutions were continued in the same manner through well 12. Fifty μL was removed from well 12 so that all contained 50 μL. Fifty μL of the working inoculum was then added to all test wells. A growth control well was prepared by adding 50 μL of working inoculum and 50 μL of MHB to an empty well. The plates were then incubated at 37° C. overnight, removed from the incubator and each well was read on a plate reading mirror. The lowest concentration (MIC) of test compound that inhibited the growth of the bacteria was recorded.

[13] = test system: Staphylococcus epidermidis SE164 (ATCC 12228); assay: MIC assay, SE164; assay type: cell-based; settings: ATCC12228, read-out: MIC SE 164 12228
[14] = test system: Pseudomonas aeruginosa PA556 (multiple-Mex efflux pump knockout strain); assay: microbe, parasite or virus in culture; assay type: cell-based
[15] = test system: Klebsiella pneumoniae KP109 (ATCC 13883); assay: MIC assay, KP109; settings: K. pneumoniae ATCC 13883; Table 4
[16] = Table 6, read-out: MIC EC 880 ipx C
[17] = Table 7, read-out: MIC EC 880 ipxC
[18] = Table 6, read-out: MIC EC 882 imp
[19] = ATCC29212, read-out: MIC EF 103 29212
[20] = read-out: MIC EF 159 tetM, E. faecalis tet(M), Table 4
[21] = read-out: MIC EF 159 tetM, E. faecalis tet(M), Table 5
[22] = ATCC8176, read-out: MIC MC 205 8176
[23] = Table 7, read-out: MIC EC 882 imp
[24] = K. pneumoniae tet(A), MDR, ESBL+, Table 4
[25] = K. pneumoniae tet(A), MDR, ESBL+, Table 5

## CN(C)c1ccc(O)c2c1C[C@H]1C[C@H]3[C@H](N(C)C)C(O)=C(C(N)=O)C(=O)[C@@]3(O)C(O)=C1C2=O [Minocycline, minocycline]
[1]; S. aureus ATCC 13709, MSSA, Table 4, read-out: MIC SA 100 13709
  MIC: 0.063 µg/mL (≈ 0.138 µM)
[2]; S. aureus HA-MRSA, tetracycline-resistant, Table 5, read-out: MIC SA 191
  MIC: 8 µg/mL (≈ 17.5 µM)
[3]; ATCC29212, E. faecalis ATCC 29212, Table 4, read-out: MIC EF 103 29212
  MIC: 1 µg/mL (≈ 2.19 µM)
[4]; E. faecalis tet(M), Table 4, read-out: MIC EF 159 tetM
  MIC: 16 µg/mL (≈ 35 µM)
[5]; E. faecium tet(M), Table 6, read-out: MIC EF 404 tet M
  MIC: 8 µg/mL (≈ 17.5 µM)
[5]; control compounds, numeric, read-out: MIC EF 404 tetM
  MIC: 8 µg/mL (≈ 17.5 µM)
[6]; ATCC8176, M. catarrhalis ATCC 8176, Table 5, read-out: MIC MC 205 8176
  MIC: 0.02 µg/mL (≈ 0.0437 µM)
[7]; P. aeruginosa ATCC BAA-47 PAO1, Table 5, read-out: MIC PA 555
  MIC: 16 µg/mL (≈ 35 µM)
[7]; P. aeruginosa ATCC BAA-47 PAO1, Table 6, read-out: MIC PA5 55 BAA- 47
  MIC: 16 µg/mL (≈ 35 µM)
[7]; P. aeruginosa ATCC BAA-47 PAO1, Table 7, read-out: MIC PA 555 BAA- 47
  MIC: 16 µg/mL (≈ 35 µM)
[7]; control compounds, c1, strain PA555 inferred, read-out: MIC
  MIC: 16 µg/mL (≈ 35 µM)
[7]; control compounds, numeric, read-out: MIC PA 555 BAA-47
  MIC: 16 µg/mL (≈ 35 µM)
[8]; control compounds, c3, strain PA673 inferred, read-out: MIC
  MIC: 32 µg/mL (≈ 69.9 µM)
[8]; control compounds, numeric, read-out: MIC PA 673
  MIC: 33 µg/mL (≈ 72.1 µM)
[9]; control compounds, c8, strain AB250 inferred, read-out: MIC
  MIC: 8 µg/mL (≈ 17.5 µM)
[9]; control compounds, numeric, read-out: MIC AB 250
  MIC: 8 µg/mL (≈ 17.5 µM)
[10]; c10, strain BC240 inferred, read-out: MIC
  MIC: 8 µg/mL (≈ 17.5 µM)
[10]; numeric, read-out: MIC BC 240
  MIC: 8 µg/mL (≈ 17.5 µM)
EC 880 ipxC; [16]
  MIC: 0.015 µg/mL (≈ 0.0328 µM)
EC 880 ipxC; [17]
  MIC: 0.02 µg/mL (≈ 0.0437 µM)
EC 882 imp; [18]
  MIC: 0.015 µg/mL (≈ 0.0328 µM)
EC 882 imp; read-out: MIC EC 882 imp, Table 7
  MIC: 0.02 µg/mL (≈ 0.0437 µM)
[11]
  MIC KP 109 13883: 1 µg/mL (≈ 2.19 µM)
[12]
  MIC KP 153 tetA: 8 µg/mL (≈ 17.5 µM)
PA 884 35151
  MIC: 1 µg/mL (≈ 2.19 µM)

## CN(C)[C@@H]1C(O)=C(C(N)=O)C(=O)[C@@]2(O)C(O)=C3C(=O)c4c(O)cccc4C[C@H]3C[C@@H]12 [Sancycline, sancycline]
[1]; read-out: MIC SA 100 13709
  MIC: 1 µg/mL (≈ 2.41 µM)
[2]; MRSA, read-out: MIC SA 191
  MIC: 8 µg/mL (≈ 19.3 µM)
[13]
  MIC: 4 µg/mL (≈ 9.65 µM)
[3]; [19]
  MIC: 8 µg/mL (≈ 19.3 µM)
[4]; [20]
  MIC: 8 µg/mL (≈ 19.3 µM)
[4]; [21]
  MIC: 8 µg/mL (≈ 19.3 µM)
[5]; read-out: MIC EF 404 tet M
  MIC: 4 µg/mL (≈ 9.65 µM)
[5]; read-out: MIC EF 404 tetM
  MIC: 4 µg/mL (≈ 9.65 µM)
[6]; [22]
  MIC: 0.13 µg/mL (≈ 0.314 µM)
[7]
  MIC: 32 µg/mL (≈ 77.2 µM)
[7]; read-out: MIC PA5 55 BAA- 47
  MIC: 32 µg/mL (≈ 77.2 µM)
[7]; read-out: MIC PA 555
  MIC: 32 µg/mL (≈ 77.2 µM)
[7]; read-out: MIC PA 555 BAA- 47
  MIC: 32 µg/mL (≈ 77.2 µM)
[7]; read-out: MIC PA 555 BAA-47
  MIC: 32 µg/mL (≈ 77.2 µM)
[14]
  MIC: 1 µg/mL (≈ 2.41 µM)
[14]; read-out: MIC PA 556
  MIC: 1 µg/mL (≈ 2.41 µM)
[8]
  MIC: 32 µg/mL (≈ 77.2 µM)
[8]; read-out: MIC PA 673
  MIC: 33 µg/mL (≈ 79.6 µM)
[9]
  MIC: 16 µg/mL (≈ 38.6 µM)
[9]; read-out: MIC AB 250
  MIC: 16 µg/mL (≈ 38.6 µM)
EC 880 ipxC; [17]
  MIC: 0.25 µg/mL (≈ 0.603 µM)
EC 880 ipxC; read-out: MIC EC 880 ipx C
  MIC: 0.2 µg/mL (≈ 0.483 µM)
EC 882 imp; [23]
  MIC: 0.25 µg/mL (≈ 0.603 µM)
EC 882 imp; read-out: MIC EC 882 imp, Table 6
  MIC: 0.25 µg/mL (≈ 0.603 µM)
[12]; [24]
  MIC KP 153 tetA: 32 µg/mL (≈ 77.2 µM)
[12]; [25]
  MIC KP 153 tetA: 32 µg/mL (≈ 77.2 µM)
[15]
  MIC KP 109 13883: 8 µg/mL (≈ 19.3 µM)
PA 884 35151
  MIC: 4 µg/mL (≈ 9.65 µM)

## CN(C)c1cc(NC(=O)CNC(C)(C)C)c(O)c2c1C[C@H]1C[C@H]3[C@H](N(C)C)C(O)=C(C(N)=O)C(=O)[C@@]3(O)C(O)=C1C2=O [Tigecycline, tigecycline]
[1]; read-out: MIC SA 100 13709
  MIC: 0.063 µg/mL (≈ 0.108 µM)
[2]; MRSA, read-out: MIC SA 191
  MIC: 0.5 µg/mL (≈ 0.854 µM)
[13]
  MIC: 0.125 µg/mL (≈ 0.213 µM)
[3]; [19]
  MIC: 0.031 µg/mL (≈ 0.0529 µM)
[4]; [20]
  MIC: 0.063 µg/mL (≈ 0.108 µM)
[4]; [21]
  MIC: 0.06 µg/mL (≈ 0.102 µM)
[5]; read-out: MIC EF 404 tet M
  MIC: 0.031 µg/mL (≈ 0.0529 µM)
[5]; read-out: MIC EF 404 tetM
  MIC: 0.03 µg/mL (≈ 0.0512 µM)
[6]; [22]
  MIC: 0.02 µg/mL (≈ 0.0341 µM)
[7]
  MIC: 16 µg/mL (≈ 27.3 µM)
[7]; read-out: MIC PA5 55 BAA- 47
  MIC: 16 µg/mL (≈ 27.3 µM)
[7]; read-out: MIC PA 555
  MIC: 16 µg/mL (≈ 27.3 µM)
[7]; read-out: MIC PA 555 BAA- 47
  MIC: 16 µg/mL (≈ 27.3 µM)
[7]; read-out: MIC PA 555 BAA-47
  MIC: 16 µg/mL (≈ 27.3 µM)
[14]
  MIC: 0.25 µg/mL (≈ 0.427 µM)
[14]; read-out: MIC PA 556
  MIC: 0.25 µg/mL (≈ 0.427 µM)
[8]
  MIC: 16 µg/mL (≈ 27.3 µM)
[8]; read-out: MIC PA 673
  MIC: 32 µg/mL (≈ 54.6 µM)
[9]
  MIC: 8 µg/mL (≈ 13.7 µM)
[9]; read-out: MIC AB 250
  MIC: 8 µg/mL (≈ 13.7 µM)
EC 880 ipxC; [16]
  MIC: 0.015 µg/mL (≈ 0.0256 µM)
EC 880 ipxC; [17]
  MIC: 0.02 µg/mL (≈ 0.0341 µM)
EC 882 imp; [18]
  MIC: 0.015 µg/mL (≈ 0.0256 µM)
EC 882 imp; [23]
  MIC: 0.02 µg/mL (≈ 0.0341 µM)
[12]; [24]
  MIC KP 153 tetA: 1 µg/mL (≈ 1.71 µM)
[12]; [25]
  MIC KP 153 tetA: 1 µg/mL (≈ 1.71 µM)
[15]
  MIC KP 109 13883: 0.125 µg/mL (≈ 0.213 µM)
PA 884 35151
  MIC: 0.063 µg/mL (≈ 0.108 µM)
